Data as given in US11739102B2, “Fused pyrimidine compounds as KRAS inhibitors” (Incyte Corporation, priority 2020, dated 2023).

How the values were obtained:
[1] = biological target: KRAS G12C (Homo sapiens, UniProt P01116, G12C); test: GDP-GTP exchange assay (bodipy-GDP/GppNHp, SOS1); assay type: biochemical; settings: bodipy-loaded KRAS G12C 2.5 nM, SOS1 150 nM, 2 hours pre-incubation with inhibitor; read-out: G12C_exchange IC50
Experimental: The inhibitor potency of the exemplified compounds was determined in a fluorescence based guanine nucleotide exchange assay, which measures the exchange of bodipy-GDP (fluorescently labeled GDP) for GppNHp (Non-hydrolyzable GTP analog) to generate the active state of KRAS in the presence of SOS1 (guanine nucleotide exchange factor). Inhibitors were serially diluted in DMSO and a volume of 0.1 μL was transferred to the wells of a black low volume 384-well plate. 5 μL/well volume of bodipy-loaded KRAS G12C diluted to 5 nM in assay buffer (25 mM Hepes pH 7.5, 50 mM NaCl, 10 mM MgCl2 and 0.01% Brij-35) was added to the plate and pre-incubated with inhibitor for 2 hours at ambient temperature. Appropriate controls (enzyme with no inhibitor or with a G12C inhibitor (AMG-510)) were included on the plate. The exchange was initiated by the addition of a 5 μL/well volume containing 1 mM GppNHp and 300 nM SOS1 in assay buffer. The 10 μL/well reaction concentration of the bodipy-loaded KRAS G12C, GppNHp, and SOS1 were 2.5 nM, 500 uM, and 150 nM, respectively. The reaction plates were incubated at ambient temperature for 2 hours, a time estimated for complete GDP-GTP exchange in the absence of inhibitor. For the KRAS G12D and G12V mutants, similar guanine nucleotide exchange assays were used with 2.5 nM as final concentration for the bodipy loaded KRAS proteins and with 4 hours and 3 hours incubation after adding GppNHp-SOS1 mixture for G12D and G12V respectively. A cyclic peptide described to selectively bind G12D mutant (Sakamoto et al., BBRC 484.3 (2017), 605-611) or internal compounds with confirmed binding were used as positive controls in the assay plates. Fluorescence intensities were measured on a PheraStar plate reader instrument (BMG Labtech) with excitation at 485 nm and emission at 520 nm.
Either GraphPad prism or XLfit was used to analyze the data. The IC50 values were derived by fitting the data to a four parameter logistic equation producing a sigmoidal dose-response curve with a variable Hill coefficient. Prism equation: Y=Bottom+(Top−Bottom)/(1+10^((Log IC50−X)*Hill slope)); XLfit equation: Y=(A+((B−A)/(1+((X/C)^D)))) where X is the logarithm of inhibitor concentration and Y is the response.

[2] = test system: MIA PaCa-2 (KRAS G12C) cells; test: Cellular pERK HTRF assay (KRAS_G12C pERK assay); assay type: cell-based; settings: Homo sapiens, cells incubated with compound 4 hours, read-out: G12C_pERK IC50
Experimental: MIA PaCa-2 (KRAS G12C; ATCC® CRL-1420), A427 (KRAS G12D; ATCC® HTB53), HPAF-II (KRAS G12D; ATCC® CRL-1997) and NCI-H838 (KRAS WT; ATCC® CRL-5844) cells are purchased from ATCC and maintained in RPMI 1640 media supplemented with 10% FBS (Gibco/Life Technologies). The cells are plated at 5000 cells per well (8 uL) into Greiner 384-well low volume, flat-bottom, tissue culture treated white plates and incubated overnight at 37° C., 5% CO2. The next morning, test compound stock solutions are diluted in media at 3× the final concentration, and 4 uL are added to the cells. The plate is mixed by gentle rotation for 30 seconds (250 rpm) at room temperature. The cells are incubated with the KRAS G12C and G12D compounds for 4 hours or 2 hours respectively at 37° C., 5% CO2.
4 uL of 4× lysis buffer with blocking reagent (1:25) (Cisbio) are added to each well and plates are rotated gently (300 rpm) for 30 minutes at room temperature. 4 uL per well of Cisbio anti Phospho-ERK 1/2 d2 is mixed with anti Phospho-ERK 1/2 Cryptate (1:1) are added to each well, mixed by rotation and incubated overnight in the dark at room temperature. Plates are read on the Pherastar plate reader at 665 nm and 620 nm wavelengths. IC50 determination is performed by fitting the curve of inhibitor percent inhibition versus the log of the inhibitor concentration using the GraphPad Prism 7 software.

Sequence of KRAS G12C (P01116 1-188 isoform P01116-2 G12C): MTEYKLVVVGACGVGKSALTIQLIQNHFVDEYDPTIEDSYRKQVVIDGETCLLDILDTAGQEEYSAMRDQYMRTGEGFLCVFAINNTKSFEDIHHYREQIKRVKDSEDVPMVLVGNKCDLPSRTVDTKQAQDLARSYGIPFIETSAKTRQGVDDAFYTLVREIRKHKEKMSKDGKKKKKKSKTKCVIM

| Compound | IC50 [1] [nM] | IC50 [2] [nM] |
| --- | --- | --- |
| C=Cc1ncc2n1CCN(c1nc(OC[C@@H]3CCCN3C)nc3c1CCN(c1cccc4cccc(Cl)c14)C3)C2 [Example 4, (S)-7-(8-Chloronaphthalen-1-yl)-2-((1-methylpyrrolidin-2-yl)methoxy)-4-(3-vinyl-5,6-dihydroimidazo[1,5-a]pyrazin-7(8H)-yl)-5,6,7,8-tetrahydropyrido[3,4-d]pyrimidine] | 100 to 1000 | 1000 to 5000 |
| C=Cc1ncc2n1CCN(c1nc(OC[C@@H]3CCCN3C)nc3c1CCN(c1cccc4ccccc14)C3)C2 [Example 3, (S)-2-((1-Methylpyrrolidin-2-yl)methoxy)-7-(naphthalen-1-yl)-4-(3-vinyl-5,6-dihydroimidazo[1,5-a]pyrazin-7(8H)-yl)-5,6,7,8-tetrahydropyrido[3,4-d]pyrimidine] | ≤ 100 | 1000 to 5000 |
| C=Cc1ncc2n1CCN(c1nc(OCCCN3CCCCC3)nc3c1CCN(c1cccc4cccc(Cl)c14)C3)C2 [Example 5, 7-(8-Chloronaphthalen-1-yl)-2-(3-(piperidin-1-yl)propoxy)-4-(3-vinyl-5,6-dihydroimidazo[1,5-a]pyrazin-7(8H)-yl)-5,6,7,8-tetrahydropyrido[3,4-d]pyrimidine] | 100 to 1000 | 1000 to 5000 |
| C=Cc1ncc2n1CCN(c1nc(OCCCN3CCOCC3)nc3c1CCN(c1cccc4ccccc14)C3)C2 [Example 2, 4-(3-((7-(Naphthalen-1-yl)-4-(3-vinyl-5,6-dihydroimidazo[1,5-a]pyrazin-7(8H)-yl)-5,6,7,8-tetrahydropyrido[3,4-d]pyrimidin-2-yl)oxy)propyl)morpholine] | ≤ 100 | 1000 to 5000 |
| C=Cc1ncc2n1CCN(c1nc(OCC3CCCN(C)C3)nc3c1CCN(c1cccc4cccc(Cl)c14)C3)C2 (centres unmarked) [Example 6, 7-(8-Chloronaphthalen-1-yl)-2-((1-methylpiperidin-3-yl)methoxy)-4-(3-vinyl-5,6-dihydroimidazo[1,5-a]pyrazin-7(8H)-yl)-5,6,7,8-tetrahydropyrido[3,4-d]pyrimidine] | 100 to 1000 | 1000 to 5000 |
| C=Cc1ncc2n1CCN(c1nc(OCCCN3CCOCC3)nc3c1CCN(c1cccc4cccc(Cl)c14)C3)C2 [Example 1, 4-(3-((7-(8-Chloronaphthalen-1-yl)-4-(3-vinyl-5,6-dihydroimidazo[1,5-a]pyrazin-7(8H)-yl)-5,6,7,8-tetrahydropyrido[3,4-d]pyrimidin-2-yl)oxy)propyl)morpholine] | 100 to 1000 | 1000 to 5000 |

Continued, values first:

| IC50 [1] [nM] | IC50 [2] [nM] | Compound |
| --- | --- | --- |
| 100 to 1000 | 1000 to 5000 | C=Cc1ncc2n1CCN(c1nc(OC[C@@H]3CCCN3C)nc3c1CCN(c1cc(O)cc4ccccc14)C3)C2 [Example 9, (S)-4-(2-((1-Methylpyrrolidin-2-yl)methoxy)-4-(3-vinyl-5,6-dihydroimidazo[1,5-a]pyrazin-7(8H)-yl)-5,8-dihydropyrido[3,4-d]pyrimidin-7(6H)-yl)naphthalen-2-ol] |
| 1000 to 5000 |  | C=Cc1ncc2n1CCN(c1nc(OCC3(C#N)CCCC3)nc3c1CCN(c1cccc4cccc(Cl)c14)C3)C2 [Example 12, 1-(((7-(8-Chloronaphthalen-1-yl)-4-(3-vinyl-5,6-dihydroimidazo[1,5-a]pyrazin-7(8H)-yl)-5,6,7,8-tetrahydropyrido[3,4-d]pyrimidin-2-yl)oxy)methyl)cyclopentane-1-carbonitrile] |
| 100 to 1000 | 1000 to 5000 | C=Cc1ncc2n1CCN(c1nc(OC[C@H]3CCCN3C)nc3c1CCN(c1cc(O)cc4ccccc14)C3)C2 [Example 11, (R)-4-(2-((1-Methylpyrrolidin-2-yl)methoxy)-4-(3-vinyl-5,6-dihydroimidazo[1,5-a]pyrazin-7(8H)-yl)-5,8-dihydropyrido[3,4-d]pyrimidin-7(6H)-yl)naphthalen-2-ol] |
| 100 to 1000 |  | C=Cc1ncc2n1CCN(c1nc(OC[C@@H]3CCCN3Cc3ccccc3)nc3c1CCN(c1cccc4cccc(Cl)c14)C3)C2 [Example 10, (S)-2-((1-Benzylpyrrolidin-2-yl)methoxy)-7-(8-chloronaphthalen-1-yl)-4-(3-vinyl-5,6-dihydroimidazo[1,5-a]pyrazin-7(8H)-yl)-5,6,7,8-tetrahydropyrido[3,4-d]pyrimidine] |
| 1000 to 5000 |  | C=Cc1ncc2n1CCN(c1nc(OCCCN3CCOCC3)nc3c1CCN(c1cc(O)cc4ccccc14)C3)C2 [Example 13, 4-(2-(3-Morpholinopropoxy)-4-(3-vinyl-5,6-dihydroimidazo[1,5-a]pyrazin-7(8H)-yl)-5,8-dihydropyrido[3,4-d]pyrimidin-7(6H)-yl)naphthalen-2-ol] |
| 1000 to 5000 |  | C=Cc1cnc2n1CCN(c1nc(OCCCN3CCOCC3)nc3c1CCN(c1cccc4cccc(Cl)c14)C3)C2 [Example 15, 4-(3-((7-(8-Chloronaphthalen-1-yl)-4-(3-vinyl-5,6-dihydroimidazo[1,2-a]pyrazin-7(8H)-yl)-5,6,7,8-tetrahydropyrido[3,4-d]pyrimidin-2-yl)oxy)propyl)morpholine] |
| 1000 to 5000 |  | C=Cc1cnc2n1CCN(c1nc(OC[C@@H]3CCCN3C)nc3c1CCN(c1cccc4cccc(Cl)c14)C3)C2 [Example 14, (S)-7-(8-Chloronaphthalen-1-yl)-2-((1-methylpyrrolidin-2-yl)methoxy)-4-(3-vinyl-5,6-dihydroimidazo[1,2-a]pyrazin-7(8H)-yl)-5,6,7,8-tetrahydropyrido[3,4-d]pyrimidine] |
| 100 to 1000 |  | C=Cc1ncc2n1CCN(c1nc(OCCC3CCCN3C)nc3c1CCN(c1cccc4cccc(Cl)c14)C3)C2 (centres unmarked) [Example 8, 7-(8-Chloronaphthalen-1-yl)-2-(2-(1-methylpyrrolidin-2-yl)ethoxy)-4-(3-vinyl-5,6-dihydroimidazo[1,5-a]pyrazin-7(8H)-yl)-5,6,7,8-tetrahydropyrido[3,4-d]pyrimidine] |
| 100 to 1000 |  | C=Cc1ncc2n1CCN(c1nc(OCC3CCCCN3C)nc3c1CCN(c1cccc4cccc(Cl)c14)C3)C2 (centres unmarked) [Example 7, 7-(8-Chloronaphthalen-1-yl)-2-((1-methylpiperidin-2-yl)methoxy)-4-(3-vinyl-5,6-dihydroimidazo[1,5-a]pyrazin-7(8H)-yl)-5,6,7,8-tetrahydropyrido[3,4-d]pyrimidine] |
